Assay results published in PMC3288053 (PLoS ONE, 2012).
Where two headings read alike, the source gives them in different places.

How the values were obtained:
[1] = system: 3T3-L1 adipocytes; experiment: 2-Deoxyglucose uptake in 3T3-L1 adipocytes; format: cell-based; conditions: insulin 17 nM; Rut 5–25 µM, C2 10 µM
Method: 3T3-L1 adipocytes are fully differentiated (the 10th day after MDI stimulation) and seeded into 24-well plate. After incubation with compounds in serum-free medium containing 0.5% BSA for 8 hours, medium is changed to Krebs buffer containing […] insulin and incubated for 30 minutes. In the last 5 minutes, cells are incubated with 2-[^3H]-deoxy-D-glucose. The glucose uptake is stopped by ice-cold PBS, and the cells are then lysed with 0.1% Triton. Finally the radioactivity is calculated by a scintillation counter. Cytochalasin B is used to measure nonspecific uptake, and the value is subtracted from all the data. Radioactivity is normalized by total protein concentration that is measured by BCA kit.

[2] = system: CHO-K1/GLUT4 cells; experiment: Quantification of GLUT4 translocation ratio (IN Cell Analyzer 1000); format: cell-based; conditions: for EC50: serum-starved cells, read-out: EC50, membrane GLUT4 (GLUT4 translocation)
Method: CHO-K1 cells are transfected with pEGFPN1-GLUT4-myc plasmid using Lipofectamine 2000, and subsequently screened with G418 (800 µg/ml). The CHO-K1/GLUT4 stable cell line is obtained by picking up clones.
CHO-K1/GLUT4 cells are seeded into 96-well plate. After cells reached 100% confluence, F12 medium is changed to 3T3-L1 medium and incubated for 2 days. 8-hour serum starvation later, cells are stimulated with insulin for 5 minutes, fixed with 3.7% formaldehyde for 15 minutes, and labeled with anti-myc monoclonal antibody and secondary antibody (Alexa Fluor 647 conjuncted anti-mouse antibody). Fluorescence pictures were obtained by IN Cell Analyzer 1000 Instrument (GE Healthcare) with the same exposure time. The basic unit comprises several core components including a Nikon microscope and a high-resolution CCD camera. Membrane-located GLUT4 is represented by the intensity of red fluorescence (Alex fluor 647) and normalized by the intensity of green fluorescence (GLUT4-EGFP), which is assigned to the total GLUT4 [46].

[3] = biological target: T1, CD45 (Homo sapiens, UniProt P08575); experiment: PTP enzyme inhibition assay (pNPP substrate); format: biochemical; conditions: PTPs 0.3 µM, pNPP 5 mM, 25°C; NI: No inhibition at 100 µM
T1 construct: pGEX2T-CD45_560–1256; GST (N); made in house; host or cells: E. coli BL21 (DE3)
T1 sequence (P08575 610-1306 limits assumed): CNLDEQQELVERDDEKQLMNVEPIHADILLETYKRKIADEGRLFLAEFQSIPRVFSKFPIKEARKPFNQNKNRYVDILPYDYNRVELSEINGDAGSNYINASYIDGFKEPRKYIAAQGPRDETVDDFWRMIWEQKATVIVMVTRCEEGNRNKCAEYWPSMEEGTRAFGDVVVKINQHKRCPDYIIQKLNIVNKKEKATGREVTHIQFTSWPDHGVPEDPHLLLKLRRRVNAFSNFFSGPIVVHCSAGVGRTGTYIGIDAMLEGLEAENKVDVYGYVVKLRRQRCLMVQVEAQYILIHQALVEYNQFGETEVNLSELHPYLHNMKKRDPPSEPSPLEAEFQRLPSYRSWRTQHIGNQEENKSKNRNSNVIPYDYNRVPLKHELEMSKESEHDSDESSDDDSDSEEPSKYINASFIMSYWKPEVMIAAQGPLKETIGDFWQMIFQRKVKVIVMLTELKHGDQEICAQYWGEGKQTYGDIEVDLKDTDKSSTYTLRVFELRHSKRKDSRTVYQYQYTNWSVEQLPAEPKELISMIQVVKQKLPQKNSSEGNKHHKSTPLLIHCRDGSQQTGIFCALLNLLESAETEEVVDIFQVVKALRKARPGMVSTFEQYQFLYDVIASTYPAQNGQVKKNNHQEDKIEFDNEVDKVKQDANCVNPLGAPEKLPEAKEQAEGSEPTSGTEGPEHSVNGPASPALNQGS
Method: (§1) The enzymatic activities of the recombinant PTPs are measured at 25°C using pNPP as substrate. The initial velocities of enzymatic reactions are determined by continuously measuring the absorbance at 405 nm every 15 s using a microplate spectrophotometer (Bio-Rad). […] To determine the inhibition type, each concentration of Rut (0, 50 and 75 µM) is incubated with PTP1B (0.3 µM) in reaction buffer (50 mM HEPES, pH7.0, 1 mM EDTA, and 100 mM NaCl) for 10 min and the reactions are initiated by different concentrations of pNPP (0.5–10 mM). The inhibition type is determined using double-reciprocal plots. In determination of the selectivity of Rut against PTPs, the result is referred as no inhibition when 100 µM Rut inhibits no enzyme activity. The same reaction systems are designed for all PTPs including PTP1B.

[4] = biological target: T2, LAR (Homo sapiens, UniProt P10586); experiment: PTP enzyme inhibition assay (pNPP substrate); format: biochemical; conditions: PTPs 0.3 µM, pNPP 5 mM, 25°C; NI: No inhibition at 100 µM; read-out: IC50 LAR
T2 construct: pGEX2T-LAR1282–1888; GST (N); made in house; host or cells: E. coli BL21 (DE3)
T2 sequence (P10586 1301-1907 limits assumed): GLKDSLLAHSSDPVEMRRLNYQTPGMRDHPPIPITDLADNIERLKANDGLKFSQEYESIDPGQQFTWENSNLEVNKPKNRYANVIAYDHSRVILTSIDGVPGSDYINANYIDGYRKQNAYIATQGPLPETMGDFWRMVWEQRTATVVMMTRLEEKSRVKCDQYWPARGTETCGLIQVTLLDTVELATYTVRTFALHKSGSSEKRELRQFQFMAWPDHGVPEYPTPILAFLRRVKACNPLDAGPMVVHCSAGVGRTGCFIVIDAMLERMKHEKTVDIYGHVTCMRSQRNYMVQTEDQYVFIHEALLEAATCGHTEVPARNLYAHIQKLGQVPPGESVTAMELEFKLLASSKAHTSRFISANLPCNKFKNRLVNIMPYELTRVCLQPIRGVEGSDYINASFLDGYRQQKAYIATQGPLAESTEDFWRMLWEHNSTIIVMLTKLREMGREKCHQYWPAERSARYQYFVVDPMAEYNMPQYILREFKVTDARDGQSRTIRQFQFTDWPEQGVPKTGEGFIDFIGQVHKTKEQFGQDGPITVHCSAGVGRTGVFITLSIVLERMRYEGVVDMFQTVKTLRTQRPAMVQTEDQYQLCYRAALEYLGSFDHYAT
Method: as §1

[5] = biological target: T3, PTPα (Homo sapiens, UniProt P18433); experiment: PTP enzyme inhibition assay (pNPP substrate); format: biochemical; conditions: PTPs 0.3 µM, pNPP 5 mM, 25°C; NI: No inhibition at 100 µM; read-out: IC50 PTPα
T3 construct: pGEX2T-PTPα182–803; GST (N); made in house; host or cells: E. coli BL21 (DE3)
Method: as §1

[6] = biological target: T4, PTP1B (Homo sapiens, UniProt P18031); experiment: PTP enzyme inhibition assay (pNPP substrate); format: biochemical; conditions: PTPs 0.3 µM, pNPP 5 mM, 25°C; NI: No inhibition at 100 µM
T4 construct: pGEX4T-1-PTP1B1–321; GST (N); made in house; host or cells: E. coli BL21 (DE3)
T4 sequence (P18031 1-321): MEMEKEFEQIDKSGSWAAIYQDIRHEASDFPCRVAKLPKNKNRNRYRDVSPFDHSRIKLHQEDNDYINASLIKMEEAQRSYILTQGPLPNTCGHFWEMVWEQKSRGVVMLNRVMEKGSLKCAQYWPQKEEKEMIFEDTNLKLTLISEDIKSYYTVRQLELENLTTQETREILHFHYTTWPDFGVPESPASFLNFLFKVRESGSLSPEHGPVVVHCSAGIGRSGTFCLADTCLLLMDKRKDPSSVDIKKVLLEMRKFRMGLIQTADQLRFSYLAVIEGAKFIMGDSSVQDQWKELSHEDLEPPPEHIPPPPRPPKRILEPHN
Method: as §1

[7] = biological target: T5, TC-PTP (Homo sapiens, UniProt P17706); experiment: PTP enzyme inhibition assay (pNPP substrate); format: biochemical; conditions: PTPs 0.3 µM, pNPP 5 mM, 25°C; NI: No inhibition at 100 µM
T5 construct: pGEX4T-1-TC-PTP1–288; GST (N); made in house; host or cells: E. coli BL21 (DE3)
T5 sequence (P17706 1-288): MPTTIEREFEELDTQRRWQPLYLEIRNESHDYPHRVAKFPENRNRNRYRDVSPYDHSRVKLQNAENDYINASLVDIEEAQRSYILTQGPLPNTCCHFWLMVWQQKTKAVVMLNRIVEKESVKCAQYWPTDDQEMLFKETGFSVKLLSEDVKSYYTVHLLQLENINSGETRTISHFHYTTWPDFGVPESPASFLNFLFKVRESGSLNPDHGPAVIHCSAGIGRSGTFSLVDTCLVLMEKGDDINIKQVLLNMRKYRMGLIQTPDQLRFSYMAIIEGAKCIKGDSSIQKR
Method: as §1

[8] = biological target: T6, Peroxisome proliferator-activated receptor γ ligand-binding domain PPARγ-LBD(202-477), His-tagged, purified (human, UniProt P37231-2 202-477); experiment: SPR; Biacore 3000; purified SRC1(613-773) immobilised on a CM5 chip by amine coupling; different concentrations of PPARγ-LBD or RXRα-LBD injected at 20 µL/min for 60 s, dissociation 120 s; running buffer 10 mM HEPES, 150 mM NaCl, 3 mM EDTA, 0.005% P20, pH 7.4; also 1 µM LBD pre-incubated for 1 h with Rut (16.8-100 µM); conditions: both partners purified
T6 construct: also called hPPARγ-LBD; source: E. coli BL21 (DE3), purified (His-tag purification, Novagen instructions)
T6 sequence (looked up): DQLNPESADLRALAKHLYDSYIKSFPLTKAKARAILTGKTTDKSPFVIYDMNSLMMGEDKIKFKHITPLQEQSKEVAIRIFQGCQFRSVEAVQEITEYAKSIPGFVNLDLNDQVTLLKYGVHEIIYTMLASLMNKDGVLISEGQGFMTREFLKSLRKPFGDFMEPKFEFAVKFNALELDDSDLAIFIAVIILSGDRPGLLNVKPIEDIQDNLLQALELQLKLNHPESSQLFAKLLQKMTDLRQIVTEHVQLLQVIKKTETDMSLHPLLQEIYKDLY

[9] = biological target: T7, Retinoid X receptor α ligand-binding domain (RXRα-LBD), His-tagged, purified (human, UniProt P19793 229-458); experiment: as above; conditions: both partners purified
T7 construct: also called hRXRα-LBD; source: E. coli BL21 (DE3), purified (His-tag purification, Novagen instructions)
T7 sequence: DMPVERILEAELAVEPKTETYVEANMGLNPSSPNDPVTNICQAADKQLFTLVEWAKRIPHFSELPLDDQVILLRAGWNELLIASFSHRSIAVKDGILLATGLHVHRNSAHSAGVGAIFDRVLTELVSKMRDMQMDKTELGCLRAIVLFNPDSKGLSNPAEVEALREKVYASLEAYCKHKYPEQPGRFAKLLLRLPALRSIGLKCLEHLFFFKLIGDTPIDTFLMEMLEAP

pervanadate [reference compound]
insulin-induced glucose uptake [1]: increase the insulin-stimulated glucose uptake
EC50 ([2]; pervanadate 30 min): 51000 nM
IC50 [3]: 6 nM
IC50 [4]: 26 nM
IC50 [5]: 59 nM
IC50 [6]: 15 nM
IC50 [7]: 36 nM

insulin: insulin used as stimulus in cellular GLUT4 translocation assay
insulin-stimulated GLUT4 translocation over the basal ([2]; IN Cell 1000 analyzer based system): around 1.5 fold
EC50 ([2]; insulin 5 min): 100 nM

COC[C@H]1OC(=O)c2coc3c2[C@@]1(C)C1=C(C3=O)[C@@H]2CCC(=O)[C@@]2(C)C[C@H]1OC(C)=O [wortmannin, reference compound]
effect on Rut or insulin-stimulated GLUT4 translocation ([2]; wortmannin 1 µM, Rut 20 µM or insulin 170 nM): completely inhibits

B1: Steroid receptor coinducer-1 fragment SRC1(613-773), His-tagged, purified (domain or fragment, human, UniProt Q15788 613-773, looked up)
chain: LHNNDRLSDGDSKYSQTSHKLVQLLTTTAEQQLRHADIDTSCKDVLSCTGTSNSASANSSGGSCPSSHSSLTERHKILHRLLQEGSPSDITTLSVEPDKKDSASTSVSVTGQVQGNSSIKLELDASKKKESKDHQLLRYLLDKDEKDLRSTPNLSLDDVKV
notes: plasmid pET15b-SRC1(613-773); Human cDNA is stated as template for the two-hybrid SRC1(613-773) clone; source: E. coli BL21 (DE3), purified (His-tag purification, Novagen instructions)
binding result [8]: binds
Kd [9]: 1160 nM
